Measured values published in paper PMC9120017, “Inhibition mechanism of the chloride channel TMEM16A by the pore blocker 1PBC” (Nature Communications, 2022).
Like-named read-outs stand apart in the source and are kept apart here.

Molecular target: T1, mouse TMEM16A mutant V599A (Mus musculus, UniProt Q8BHY3, V599A)
T1 construct: expressed in transfected cells; host or cells: HEK293T
T1 sequence (Q8BHY3 1-960 V599A): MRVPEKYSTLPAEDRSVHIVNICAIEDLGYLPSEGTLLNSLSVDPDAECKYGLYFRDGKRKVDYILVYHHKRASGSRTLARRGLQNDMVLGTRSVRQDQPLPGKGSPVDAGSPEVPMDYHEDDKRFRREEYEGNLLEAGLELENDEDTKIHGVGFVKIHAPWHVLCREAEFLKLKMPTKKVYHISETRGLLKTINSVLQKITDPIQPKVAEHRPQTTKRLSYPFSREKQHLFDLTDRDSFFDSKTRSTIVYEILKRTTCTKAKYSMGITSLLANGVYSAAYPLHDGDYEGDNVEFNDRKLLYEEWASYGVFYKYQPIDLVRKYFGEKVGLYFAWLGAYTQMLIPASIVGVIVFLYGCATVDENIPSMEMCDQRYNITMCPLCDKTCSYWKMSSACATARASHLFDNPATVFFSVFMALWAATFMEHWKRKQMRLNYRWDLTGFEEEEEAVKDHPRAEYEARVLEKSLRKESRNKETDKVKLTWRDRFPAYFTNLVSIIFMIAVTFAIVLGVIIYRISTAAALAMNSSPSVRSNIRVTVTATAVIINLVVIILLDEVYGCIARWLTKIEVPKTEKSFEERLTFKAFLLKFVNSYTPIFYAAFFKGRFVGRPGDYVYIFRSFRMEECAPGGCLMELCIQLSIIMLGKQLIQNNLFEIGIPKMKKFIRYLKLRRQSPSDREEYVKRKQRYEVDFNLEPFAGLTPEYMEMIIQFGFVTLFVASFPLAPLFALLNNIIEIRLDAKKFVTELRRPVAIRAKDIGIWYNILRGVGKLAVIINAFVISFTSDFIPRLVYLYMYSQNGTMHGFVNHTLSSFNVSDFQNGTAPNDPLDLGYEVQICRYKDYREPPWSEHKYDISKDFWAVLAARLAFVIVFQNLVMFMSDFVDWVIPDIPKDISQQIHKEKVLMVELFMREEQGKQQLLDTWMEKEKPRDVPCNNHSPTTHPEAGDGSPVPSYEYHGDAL
Assay: Inside-out patch recording of 1PBC block, mutant V599A
Assay type: cell-based
Details: for remaining activity at 3 µM: 1PBC conc 3; for remaining activity at 3 µM / remaining activity at 10 µM / remaining activity at 30 µM / remaining activity at 100 µM: read-out: relative current in 1PBC (avr); for remaining activity at 10 µM: 1PBC conc 10; for remaining activity at 30 µM: 1PBC conc 30; for remaining activity at 100 µM: 1PBC conc 100
Method: HEK293T cells (ATCC CRL-1573) were maintained in Dulbecco’s modified Eagle’s medium (DMEM; Sigma-Aldrich) supplemented with 10 U ml^−1 penicillin, 0.1 mg ml^−1 streptomycin (Sigma-Aldrich), 2 mM L-glutamine (Sigma-Aldrich), and 10% FBS (Sigma-Aldrich) in a humidified atmosphere containing 5% CO2 at 37 °C. HEK293S GnTI^− cells (ATCC CRL-3022) were maintained in HyClone HyCell TransFx-H medium (GE Healthcare) supplemented with 10 U ml^−1 penicillin, 0.1 mg ml^−1 streptomycin, 4 mM L-glutamine, 0.15% poloxamer 188 (Sigma-Aldrich), and 1% FBS in an atmosphere containing 5% CO2 at 185 rpm at 37 °C. The ac splice variant of mouse TMEM16A (UniProt ID: Q8BHY3), mouse TMEM16B (UniProt ID: Q8CFW1), or mouse TMEM16F (UniProt ID: Q6P9J9) bearing a 3C cleavage site, a Venus YFP, a Myc tag, and a Streptavidin-binding peptide (SBP) downstream of the open reading frame in a modified pcDNA3.1 vector (Invitrogen) were used as described previously[21],[31]. Mutations were introduced using a modified QuikChange method[58] and were verified by sequencing.
HEK293T cells were transfected with 3–4 μg DNA per 6 cm Petri dish using the calcium phosphate co-precipitation method and were used within 24–96 h after transfection. Recordings were performed on inside-out patches excised from HEK293T cells expressing the construct of interest. Patch pipettes were pulled from borosilicate glass capillaries (O.D. 1.5 mm, I.D. 0.86 mm, Sutter Instrument) and were fire-polished with a microforge (Narishige) before use. Pipette resistance was typically 3–8 MΩ when filled with the recording solutions detailed below. Seal resistance was typically 4 GΩ or higher. Voltage-clamp recordings were made using Axopatch 200B, Digidata 1550, and Clampex 10.7 (Molecular Devices). Analog signals were filtered with the in-built 4-pole Bessel filter at 10 kHz and were digitized at 20 kHz. Solution exchange was achieved using a gravity-fed system through a theta glass pipette mounted on an ultra-fast piezo-driven stepper (Siskiyou). […] All recordings were performed at 20 °C.
A symmetrical ionic condition was used throughout. Stock solution with Ca^2+-EGTA contained 150 mM NaCl, 5.99 mM Ca(OH)2, 5 mM EGTA, and 10 mM HEPES at pH 7.40. Stock solution with EGTA contained 150 mM NaCl, 5 mM EGTA, and 10 mM HEPES at pH 7.40. Free Ca^2+ concentrations were adjusted by mixing the stock solutions at the required ratios calculated using the WEBMAXC program (http://web.stanford.edu/~cpatton/webmaxcS.htm). Patch pipettes were filled with the stock solution with Ca^2+-EGTA, which has a free Ca^2+ concentration of 1 mM. 1PBC (ChemBridge) stock was reconstituted in anhydrous DMSO (Sigma-Aldrich) at 100 mM and stored at −20 °C. Working solutions with 1PBC were prepared by serial dilution. Unless otherwise stated, experiments were performed at a saturating Ca^2+ concentration as shown in Supplementary Table 1 and the primary data were corrected for current rundown as described previously[21],[25].
Concentration-response relations, obtained from the ratio of the I-V plots before and after the application of the blocker, were fitted to the Hill equation,1 I/Imax=1/1+IC50/[blocker]^h where I/Imax is the normalized current responses, IC50 defines the concentration at which inhibition is at its half-maximum, and h is the Hill coefficient.

IC50 (-20 mV, 15 µM Ca2+): 79.2 µM | remaining activity at 3 µM (-20 mV): 93.7% | remaining activity at 10 µM (-20 mV): 88.9% | remaining activity at 30 µM (-20 mV): 74.6% | remaining activity at 100 µM (-20 mV): 42.8% | IC50 (-40 mV, 15 µM Ca2+): 87.5 µM | remaining activity at 3 µM (-40 mV): 93.7% | remaining activity at 10 µM (-40 mV): 89.2% | remaining activity at 30 µM (-40 mV): 76.8% | remaining activity at 100 µM (-40 mV): 45.5% | IC50 (-60 mV, 15 µM Ca2+): 97.2 µM | remaining activity at 3 µM (-60 mV): 94.2% | remaining activity at 10 µM (-60 mV): 90.8% | remaining activity at 30 µM (-60 mV): 77.7% | remaining activity at 100 µM (-60 mV): 48.6% | IC50 (-80 mV, 15 µM Ca2+): 104 µM | remaining activity at 3 µM (-80 mV): 94.9% | remaining activity at 10 µM (-80 mV): 91.7% | remaining activity at 30 µM (-80 mV): 78.1% | remaining activity at 100 µM (-80 mV): 50.8% | IC50 (-100 mV, 15 µM Ca2+): 109 µM | remaining activity at 3 µM (-100 mV): 94.9% | remaining activity at 10 µM (-100 mV): 91.7% | remaining activity at 30 µM (-100 mV): 78.5% | remaining activity at 100 µM (-100 mV): 52.3% | IC50 (-120 mV, 15 µM Ca2+): 115 µM | remaining activity at 3 µM (-120 mV): 95.9% | remaining activity at 10 µM (-120 mV): 93.5% | remaining activity at 30 µM (-120 mV): 79.4% | remaining activity at 100 µM (-120 mV): 53.3% | IC50 (-140 mV, 15 µM Ca2+): 119 µM | remaining activity at 3 µM (-140 mV): 96% | remaining activity at 10 µM (-140 mV): 93.2% | remaining activity at 30 µM (-140 mV): 79.3% | remaining activity at 100 µM (-140 mV): 54.7% | IC50 (V599A, V 0 mV): 69.5 µM | IC50 (V599A, V 20 mV): 61.3 µM | IC50 (V599A, V 40 mV): 55.5 µM | IC50 (V599A, V 60 mV): 48.9 µM | IC50 (V599A, V 80 mV): 45.8 µM | IC50 (V599A, V 100 mV): 45 µM | IC50 (V599A, V 120 mV): 45.1 µM | IC50 (V599A, V 140 mV): 48.5 µM | IC50 (V599A, V -20 mV): 79.2 µM | IC50 (V599A, V -40 mV): 87.5 µM | IC50 (V599A, V -60 mV): 97.2 µM | IC50 (V599A, V -80 mV): 104 µM | IC50 (V599A, V -100 mV): 109 µM | IC50 (V599A, V -120 mV): 115 µM | IC50 (V599A, V -140 mV): 119 µM
Compound: N#Cc1c(C(F)(F)F)cc(O)n2c1nc1ccccc12 [1PBC]
